Literature values, collected in US6627153B1, “Integrated assay for organ function, drugs and/or one or more metabolites” (priority 1999, dated 2003).

Conditions: following oral administration; within the first 24 hours

CN(C)C(=N)N=C(N)N [Metformin]
absorbed drug eliminated via the renal route: 90%
